Source: patent EP4603105A1, “PHARMACEUTICAL COMPOSITION CONTAINING CYCLIC COMPOUND HAVING SELECTIVE KRAS INHIBITORY EFFECT AGAINST HRAS AND NRAS” (CHUGAI SEIYAKU KABUSHIKI KAISHA, priority 2022, dated 2024)
Where a SMILES comes first, the peptide text is derived from it. Bridges are numbered along the chain shown (N, C = ends). [ ]: non-standard residue; d: D form. The star is where a group is joined. hPhe(3,5-F2-4-CF3) = N[C@@H](CCc1cc(F)c(C(F)(F)F)c(F)c1)C(=O)O; hPhe(3-Cl-4-CF3) = N[C@@H](CCc1ccc(C(F)(F)F)c(Cl)c1)C(=O)O; NPrPhe(4-CF3) = CCCN[C@@H](Cc1ccc(C(F)(F)F)cc1)C(=O)O; NMeGly(cPent) = CN[C@H](C(=O)O)C1CCCC1; NMeGly(cBu) = CN[C@H](C(=O)O)C1CCC1; αMeCha = C[C@](N)(CC1CCCCC1)C(=O)O; NMeD = CN[C@@H](CC(=O)O)C(=O)O; NMeL = CN[C@@H](CC(C)C)C(=O)O; Morpholide = C1CN(*)CCO1; NMeA = CN[C@@H](C)C(=O)O; Ac5c = NC1(C(=O)O)CCCC1; Aze = O=C(O)[C@@H]1CCN1; Sar = CNCC(=O)O

Assays:
[1] = biological target: GDP-bound NRAS wild-type protein (Homo sapiens, UniProt P01111); test: Binding to NRAS by surface plasmon resonance (SPR), KD and KD ratio to KRAS
Chain of GDP-bound NRAS wild-type protein (P01111 whole entry): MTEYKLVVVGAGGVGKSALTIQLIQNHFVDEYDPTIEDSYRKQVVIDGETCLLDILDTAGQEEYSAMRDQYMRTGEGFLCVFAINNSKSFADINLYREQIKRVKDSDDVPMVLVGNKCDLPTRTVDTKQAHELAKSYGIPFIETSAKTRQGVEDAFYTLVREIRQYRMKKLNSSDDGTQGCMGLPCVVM
Outline: (§1)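 GDP-loaded biotinylated Avi-tag RAS proteins (E. coli-expressed) captured on a Biotin CAPture chip at ~100–300 RU; single-cycle kinetics at 30°C, 100 µL/min, 75 s injections of rising compound concentrations. HBS pH 7.4 running buffer with 1 mM DTT, 10 mM MgCl2, 10 µM GDP, 4% DMSO. KD from 1:1 binding fit.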

[2] = biological target: HRAS wild-type protein (Homo sapiens, UniProt P01112); test: Binding to HRAS by surface plasmon resonance (SPR), KD and KD ratio to KRAS
Chain of HRAS wild-type protein (P01112 whole entry): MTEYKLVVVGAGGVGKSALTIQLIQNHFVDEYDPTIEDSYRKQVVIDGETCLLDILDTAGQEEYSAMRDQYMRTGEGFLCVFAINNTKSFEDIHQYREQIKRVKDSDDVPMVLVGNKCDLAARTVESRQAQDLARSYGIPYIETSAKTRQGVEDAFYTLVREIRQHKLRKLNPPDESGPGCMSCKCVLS
Outline: as §1

[3] = tested on: human lung cancer strain NCI-H441; type: cell-based
Outline: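 Readout: […] after the ATP-based reagent. Compound: serial dilutions in dimethyl sulfoxide.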

[4] = ratio of the KD value with respect to GDP-bound NRAS wild-type protein to the KD value with respect to KRAS
[5] = ratio of the KD value with respect to HRAS wild-type protein to the KD value with respect to KRAS
[6] = ratio of KD for GDP-bound NRAS wild-type protein to KD for KRAS
[7] = ratio of KD for HRAS wild-type protein to KD for KRAS

IC50 [3] | SMILES | NRAS /KRAS [1, 4] | HRAS /KRAS [2, 5] | NRAS /KRAS [1, 6] | HRAS /KRAS [2, 7] | NRAS /KRAS ([1]; ratio of KD value for GDP-bound NRAS wild-type protein to KD value for KRAS (SPR)) | HRAS /KRAS ([2]; ratio of KD value for HRAS wild-type protein to KD value for KRAS (SPR))
297 nM | CCCN1C(=O)CN(C)C(=O)CN(C)C(=O)[C@H]([C@@H](C)CC)NC(=O)[C@H](CC(C)C)N(C)C(=O)C[C@@H](C(=O)N(C)C)N(C)C(=O)[C@H](C2CCCC2)N(C)C(=O)[C@](C)(CC2CCCCC2)NC(=O)[C@@H]2CCCN2C(=O)[C@H](CCc2cc(F)c(C(F)(F)F)c(F)c2)NC(=O)CN(C)C(=O)[C@@H]1Cc1ccc(C(F)(F)F)cc1 [PP0739] ([NMeL]I[Sar][Sar][NPrPhe(4-CF3)][Sar][hPhe(3,5-F2-4-CF3)]P[αMeCha][NMeGly(cPent)][NMeD]-NMe2; lactam N-11) | B (a compound having 3 or more and less than 10 is denoted as B) | C (A compound having a KD ratio of 0.1 or more and less than 3 is denoted as C) |  |  |  | 
2.6 nM | CCCN1C(=O)[C@@H]2CCN2C(=O)[C@H](C)N(C)C(=O)[C@H]([C@@H](C)CC)NC(=O)[C@H](C2CCC2)N(C)C(=O)C[C@@H](C(=O)N2CCOCC2)N(C)C(=O)[C@H](C2CCCC2)N(C)C(=O)C2(CCCC2)NC(=O)[C@@H]2CCCN2C(=O)[C@H](CCc2ccc(C(F)(F)F)c(Cl)c2)NC(=O)CN(C)C(=O)[C@@H]1Cc1ccc(C(F)(F)F)cc1 [PP0192] ([NMeGly(cBu)]I[NMeA][Aze][NPrPhe(4-CF3)][Sar][hPhe(3-Cl-4-CF3)]P[Ac5c][NMeGly(cPent)][NMeD]-Morpholide; lactam N-11) |  |  | C (A compound having a KD ratio of 0.1 or more and less than 3 is denoted as C) | B (a compound having 3 or more and less than 10 is denoted as B) |  | 
45 nM | CCO[C@@H]1C[C@H]2C(=O)NC3(CCC3)C(=O)N(C)[C@@H](C3CCCC3)C(=O)N(CCc3ccccc3)[C@H](C(=O)N(C)C)CC(=O)N(C)[C@@H](CC)C(=O)N[C@@H]([C@@H](C)CC)C(=O)N(C)CC(=O)N(C)[C@H]3CCCCN(C3=O)[C@@H](Cc3ccc(C(F)(F)F)cc3)C(=O)N(C)CC(=O)N[C@@H](CCc3cc(F)c(C(F)(F)F)c(F)c3)C(=O)N2C1 [PP0647] | C (A compound having a KD ratio of 0.1 or more and less than 3 is denoted as C) | B (a compound having 3 or more and less than 10 is denoted as B) |  |  |  | 
21.8 nM | CC[C@H](C)[C@@H]1NC(=O)[C@H](CC(C)C)N(C)C(=O)C[C@@H](C(=O)N2CCOCC2)N(C)C(=O)[C@H](C2CCCC2)N(C)C(=O)C2(CCC2)NC(=O)[C@@H]2[C@@H](OC)CCN2C(=O)[C@H](CCc2cc(F)c(C(F)(F)F)c(F)c2)NC(=O)CN(C)C(=O)[C@H](Cc2ccc(C(F)(F)F)cc2)N2CCCC[C@@H](C2=O)N(C)C(=O)CN(C)C1=O [PP1075] |  |  | B (a compound having 3 or more and less than 10 is denoted as B) | B (a compound having 3 or more and less than 10 is denoted as B) |  | 
79.1 nM | CC[C@H](C)[C@@H]1NC(=O)[C@@H](CC(C)C)N(C)C(=O)C[C@@H](C(=O)N(C)C)N(C)C(=O)[C@@H](C2CCCC2)N(C)C(=O)C2(CCCC2)NC(=O)[C@@H]2CCCN2C(=O)[C@H](CCc2ccc(C(F)(F)F)c(Cl)c2)NC(=O)CN(C)C(=O)[C@@H](Cc2ccc(C)cc2)N2CC/C=C\CCN(CC2=O)C(=O)CN(C)C1=O [PP0618] | C (A compound having a KD ratio of 0.1 or more and less than 3 is denoted as C) | C (A compound having a KD ratio of 0.1 or more and less than 3 is denoted as C) |  |  |  | 
38 nM | CC[C@H](C)[C@@H]1NC(=O)[C@H](CC2CC2)N(C)C(=O)C[C@@H](C(=O)N(C)C)N(C)C(=O)[C@H](C2CCCC2)N(C)C(=O)C2(CC(C)(C)C2)NC(=O)[C@@H]2C[C@@H](C(F)(F)F)CN2C(=O)[C@H](CCc2cc(F)c(C(F)(F)F)c(F)c2)NC(=O)CN(C)C(=O)[C@H](Cc2ccc(C(F)(F)F)cc2)N2CC/C=C\C[C@@H](C2=O)N(C)C(=O)CN(C)C1=O [PP1504] |  |  |  |  | A (a compound having 10 or more and less than 20 is denoted as A) | A (a compound having 10 or more and less than 20 is denoted as A)
